Laboratory results from patent US20220169603A1, “NOVEL SALTS, CRYSTALLINE FORMS AND PREMIX OF HYPOLIPIDEMIC AGENT” (Cadila Healthcare Ltd., priority 2019, published 2022).

What was measured:
[1] = Stability of selected compounds measured by HPLC purity over 6 months; format: physicochemical
Procedure: • Column: YMC-pack ODS-AM (type L1) or equivalent; 250×4.6 mm, 5 μm • Wave length: 294 nm • Column temp.: 30° C. • Mobile phase: [Ammonium acetate buffer: Acetonitrile]/[55:45] • Flow rate: 1 ml/min • Injection vol.: 5 μl • Retention time: About 10 mints. • Run time: 60 mints.

[2] = system: serum triglyceride levels; assay: Comparative efficacy study (triglyceride lowering effects) in Swiss albino mice; format: in vivo; settings: for % Change Day 6 vs Day 0 (serum triglycerides) / % Change Vs control (serum triglycerides) / Serum triglycerides Day 6: 1 mg/kg free acid equivalent, oral, once daily for six days; for % Change Vs control (serum triglycerides): vs vehicle control; for reduction in serum triglyceride levels as compared to vehicle control group: p.o., six days; for Serum triglycerides Day 0: Day 0, before treatment, male Swiss albino mice, 6 per group; for Serum triglycerides Day 6: Day 6, one hr after dose
Procedure: The in-vivo efficacy of test compound was evaluated in Swiss albino mice. Anti-dyslipidemic drugs have been reported to lower circulating levels of triglyceride in Swiss albino mice through their effect on genes involved in the peroxisomal fatty acid beta oxidation via PPAR alpha agonism. Therefore, this species is preferred for evaluation of their efficacy in lowering circulating triglyceride (TG) levels.
In this experiment, ten to eleven week old male Swiss albino mice were issued and kept for acclimatization. Near the end of the acclimatization period, animals judged to be suitable for testing were bled under light anesthesia and serum samples were analyzed for serum triglyceride levels.
Test compounds were formulated at specified doses in vehicle (MiliQ Water). The animals were dosed orally, once daily in the morning during six days, starting from next day of grouping with vehicle or test compound. The animals were weighed prior to dosing, and based on these weights; the volume of administration was calculated. The volume of formulation administered to each mouse was 10 ml/kg body weight.
On day 6, one-hr after the dose administration, blood (0.25 ml) was collected from retro-orbital sinus of the anaesthetized animals. Serum was separated by centrifugation. Serum was analyzed for triglyceride levels. Analysis for serum triglyceride levels was performed using Spectrophotometer and commercially available kit. Calculations for determination of % change and % reduction in serum TG levels (Table 3) were performed using MS Excels sheet.

[3] = Stability study of Saroglitazar free acid (purity and % of impurity on storage); format: physicochemical
Excerpt: Further the Saroglitazar free acid as disclosed in WO03009841 was always obtained in liquid form.

| Molecule | HPLC (% purity) At 0 month [1] [%] | HPLC (% purity) After 6 months [1] [%] | % Change Day 6 vs Day 0 (serum triglycerides) [2] [%] | % Change Vs control (serum triglycerides) [2] [%] | reduction in serum triglyceride levels as compared to vehicle control group ([2]; 1 mg/kg) | Serum triglycerides Day 0 [2] [mg/dL] | Serum triglycerides Day 6 [2] [mg/dL] | Serum triglycerides Day 6 ([2]; 1 mg/kg) [mg/dL] | other results |
| --- | --- | --- | --- | --- | --- | --- | --- | --- | --- |
| CCO[C@@H](Cc1ccc(OCCn2c(C)ccc2-c2ccc(SC)cc2)cc1)C(=O)[O-].[Li+] [Example 12, (S)-2-ethoxy-3-(4-(2-(2-methyl-5-(4-(methylthio)phenyl)-1H-pyrrol-1-yl)ethoxy)phenyl)propanoic Acid Lithium Salt] | 96.82 | 95.50 |  |  |  |  |  |  |  |
| CCO[C@@H](Cc1ccc(OCCn2c(C)ccc2-c2ccc(SC)cc2)cc1)C(=O)[O-].[Na+] [Example 6, (S)-2-ethoxy-3-(4-(2-(2-methyl-5-(4-(methylthio)phenyl)-1H-pyrrol-1-yl)ethoxy)phenyl)propanoic Acid Sodium Salt] |  |  | −34.4 ± 10.5 | −62.7 ± 6.0 | 62.7% | 59.6 ± 5.4 | 39.0 ± 7.5 |  |  |
| (S)-2-ethoxy-3-(4-(2-(2-methyl-5-(4-(methylthio)phenyl)-1H-pyrrol-1-yl)ethoxy)phenyl)propanoic Acid Magnesium Salt [Example 32] | 97.10 | 95.78 | −44.5 ± 10.4 | −68.4 ± 5.9 |  | 61.9 ± 7.7 |  | 32.6 ± 4.9 |  |
| CCO[C@@H](Cc1ccc(OCCn2c(C)ccc2-c2ccc(SC)cc2)cc1)C(=O)O [Saroglitazar, (S) 2-Ethoxy-3-(4-{2-[2-methyl-5-(4-methylthiophenyl)-pyrrol-1-yl]-ethoxy}-phenyl)-propionic acid] |  |  | 8.7 ± 9.0 | −38.2 ± 5.1 | 38.2% | 61.8 ± 7.4 | 65.9 ± 7.7 |  | % of impurity (RT-~22.0 min) AFTER 6 DAYS ([3]; at 0-5° C.): (0.598%); PURITY AFTER 6 DAYS ([3]; at 0-5° C.): 98.44%; % of impurity (RT-~22.0 min) AFTER 17 DAYS ([3]; at 0-5° C.): (0.631%); PURITY AFTER 17 DAYS ([3]; at 0-5° C.): 98.39%; % of impurity (RT-~22.0 min), initial ([3]; at 0-5° C.): (0.573%); INITIAL PURITY ([3]; at 0-5° C.): 98.11%; % of impurity (RT-~22.0 min) AFTER 6 DAYS ([3]; at 25~30° C.): (0.770%); PURITY AFTER 6 DAYS ([3]; at 25~30° C.): 98.12%; % of impurity (RT-~22.0 min) AFTER 17 DAYS ([3]; at 25~30° C.): (0.850%); PURITY AFTER 17 DAYS ([3]; at 25~30° C.): 97.87%; % of impurity (RT-~22.0 min), initial ([3]; at 25~30° C.): (0.573%); INITIAL PURITY ([3]; at 25~30° C.): 98.11%; stability (in words) ([3]; room temperature conditions): less stable |
| (S)-2-ethoxy-3-(4-(2-(2-methyl-5-(4-(methylthio)phenyl)-1H-pyrrol-1-yl)ethoxy)phenyl)propanoic Acid Magnesium Salt [Example 29] | 97.68 | 94.63 | −35.5 ± 7.5 | −63.3 ± 4.3 |  | 59.4 ± 5.0 |  | 37.0 ± 3.5 |  |
| (S)-2-ethoxy-3-(4-(2-(2methyl-5-(4-(methylthio)phenyl)-1H-pyrrol-1-yl)ethoxy)phenyl)propanoic Acid Calcium Salt [Example 16] | 96.83 | 96.76 | −33.9 ± 14.3 | −62.4 ± 8.1 | 62.4% | 61.3 ± 6.4 | 38.2 ± 5.6 |  |  |
| (S)-2-ethoxy-3-(4-(2- (2-methyl-5-(4-(methylthio)phenyl)-1H-pyrrol-1-yl)ethoxy)phenyl)propanoic Acid Magnesium Salt [Example 31] | 96.95 | 95.55 |  |  |  |  |  |  |  |
| (S)-2-ethoxy-3-(4-(2-(2-methyl-5-(4-(methylthio)phenyl)-1H-pyrrol-1-yl)ethoxy)phenyl)propanoic Acid Aluminum Salt [Example 14] | 96.79 | 94.94 | −35.1 ± 10.9 | −63.1 ± 6.2 | 63,1% | 61.9 ± 7.4 | 37.4 ± 3.4 |  |  |
| (S)-2-ethoxy-3-(4-(2-(2-methyl-5-(4-(methylthio)phenyl)-1H-pyrrol-1-yl)ethoxy)phenyl)propanoic Acid Magnesium Salt [Example 28] | 93.08 | 90.72 | −47.7 ± 10.2 | −70.2 ± 5.8 |  | 64.3 ± 8.6 |  | 30.0 ± 3.8 |  |
